Values after ≈ are worked out from the molar mass of the structure shown. Active and inactive are the calls of the source. The calls are words filed in the database; no cut-off is given here.
What was measured:
Mycobacterium ulcerans [1] = assay: Antimicrobial activity against Mycobacterium ulcerans 1059 harboring pTY60K containing pMH94 carrying the luxAB gene under the hsp60 promoter after 14 days determined according to CFU count by bioluminescence method; type: functional; settings: Mycobacterium ulcerans, 1059, 336 h
Mycobacterium ulcerans [2] = assay: Antimicrobial activity against Mycobacterium ulcerans ATCC 19423 harboring pTY60K containing pMH94 carrying the luxAB gene under the hsp60 promoter after 7 days determined according to CFU count by bioluminescence method; type: functional; settings: ATCC 19423, 168 h
Mycobacterium ulcerans [3] = assay: Antimicrobial activity against Mycobacterium ulcerans 1059 agar dilution method; type: functional
Mycobacterium ulcerans [4] = assay: Antimicrobial activity against Mycobacterium ulcerans 1059 harboring pTY60K carrying the luxAB gene under the hsp60 promoter agar dilution method; type: functional
Mycobacterium ulcerans [5] = assay: Antimicrobial activity against Mycobacterium ulcerans 1059 harboring pTY60K containing pMH94 carrying the luxAB gene under the hsp60 promoter after 14 days determined according to RLU count by real-time luminescence method; type: functional; settings: Mycobacterium ulcerans, 1059, 336 h
Mycobacterium ulcerans [6] = assay: Antimicrobial activity against Mycobacterium ulcerans ATCC 19423 harboring pTY60K containing pMH94 carrying the luxAB gene under the hsp60 promoter after 7 days determined according to RLU count by real-time luminescence method; type: functional; settings: ATCC 19423, 168 h
Mycobacterium ulcerans [7] = assay: Antimicrobial activity against Mycobacterium ulcerans ATCC 19423 harboring pTY60H containing pCK0601 carrying the luxAB gene under the hsp60 promoter after 14 days determined according to CFU counts by bioluminescence method; type: functional; settings: ATCC 19423, 336 h
Mycobacterium ulcerans [8] = assay: Antimicrobial activity against Mycobacterium ulcerans ATCC 19423 harboring pTY60H carrying the luxAB gene under the hsp60 promoter determined after 14 days in presence of 2.5 ug/ml ATP-cassette transporter inhibitor reserpine; type: functional, organism-based
Mycobacterium ulcerans [9] = assay: Antimicrobial activity against Mycobacterium ulcerans ATCC 19423 harboring pTY60H assessed as 4-fold increase in reserpine-mediated inhibition of bacterial growth after 14 days; type: functional, organism-based
Mycobacterium ulcerans [10] = assay: Antimicrobial activity against Mycobacterium ulcerans ATCC 19423 agar dilution method; type: functional
Mycobacterium ulcerans [11] = assay: Antimicrobial activity against Mycobacterium ulcerans ATCC 19423 harboring pTY60H containing pCK0601 carrying the luxAB gene under the hsp60 promoter after 14 days determined according to RLU count by real-time luminescence method; type: functional; settings: ATCC 19423, 336 h
Mycobacterium ulcerans [12] = assay: Antimicrobial activity against Mycobacterium ulcerans Cu001 agar dilution method; type: functional
Mycobacterium ulcerans [13] = assay: Antimicrobial activity against Mycobacterium ulcerans ATCC 19423 harboring pTY60H carrying the luxAB gene under the hsp60 promoter agar dilution method; type: functional
Mycobacterium ulcerans [14] = assay: Antimicrobial activity against Mycobacterium ulcerans ATCC 19423 harboring pTY60H assessed as 2-fold increase in reserpine-mediated inhibition of bacterial growth after 14 days; type: functional, organism-based

SMILES | MIC (Mycobacterium ulcerans [1]) | MIC (Mycobacterium ulcerans [2]) | MIC (Mycobacterium ulcerans [3]) | MIC (Mycobacterium ulcerans [4]) | MIC (Mycobacterium ulcerans [5]) | MIC (Mycobacterium ulcerans [6]) | MIC (Mycobacterium ulcerans [7]) | Activity (Mycobacterium ulcerans [8]) | Activity (Mycobacterium ulcerans [9]) | MIC (Mycobacterium ulcerans [10]) | MIC (Mycobacterium ulcerans [11]) | MIC (Mycobacterium ulcerans [12]) | MIC (Mycobacterium ulcerans [13]) | Activity (Mycobacterium ulcerans [14])
CC[C@H]1OC(=O)[C@H](C)[C@@H](O[C@H]2C[C@@](C)(OC)[C@@H](O)[C@H](C)O2)[C@H](C)[C@@H](O[C@@H]2O[C@H](C)C[C@H](N(C)C)[C@H]2O)[C@](C)(OC)C[C@@H](C)C(=O)[C@H](C)[C@@H](O)[C@]1(C)O [CLARITHROMYCIN] | 0.25 µg/mL (≈ 0.334 µM) | 0.03 µg/mL (≈ 0.0401 µM) | 0.25 µg/mL (≈ 0.334 µM) | 0.25 µg/mL (≈ 0.334 µM) | 0.13 µg/mL (≈ 0.174 µM) | 0.13 µg/mL (≈ 0.174 µM) |  |  |  |  |  |  |  | 
CC[C@H]1OC(=O)[C@H](C)[C@@H](O[C@H]2C[C@@](C)(OC)[C@@H](O)[C@H](C)O2)[C@H](C)[C@@H](O[C@@H]2O[C@H](C)C[C@H](N(C)C)[C@H]2O)[C@](C)(O)C[C@@H](C)C(=O)[C@H](C)[C@@H](O)[C@]1(C)O [ERYTHROMYCIN] |  |  |  |  |  |  | 1 µg/mL (≈ 1.36 µM) | Active | Active | > 16 µg/mL | 0.5 µg/mL (≈ 0.681 µM) |  |  | 
CN[C@@H]1C[C@H](N)[C@@H](O)[C@H](O[C@H]2O[C@H](CO)[C@H](O)[C@@H]3O[C@@]4(O[C@@H]23)O[C@H]([C@H](N)CO)[C@H](O)[C@H](O)[C@H]4O)[C@H]1O [HYGROMYCIN] |  |  |  |  |  |  |  |  |  | ≤ 12.5 µg/mL |  | ≤ 12.5 µg/mL |  | 
NNC(=O)c1ccncc1 [ISONIAZID] | > 40 µg/mL | > 40 µg/mL | > 40 µg/mL |  | > 40 µg/mL | > 40 µg/mL |  |  |  |  |  |  |  | 
NC[C@H]1O[C@H](O[C@H]2[C@H](O)[C@@H](O[C@H]3O[C@H](CO)[C@@H](O)[C@H](N)[C@H]3O)[C@H](N)C[C@@H]2N)[C@H](O)[C@@H](O)[C@@H]1O [KANAMYCIN] |  |  |  |  |  |  |  |  |  | ≤ 5 µg/mL |  | ≤ 5 µg/mL |  | 
CC(=O)NC[C@H]1CN(c2ccc(N3CCOCC3)c(F)c2)C(=O)O1 [LINEZOLID] | 4 µg/mL (≈ 11.9 µM) | 1 µg/mL (≈ 2.96 µM) | 1 µg/mL (≈ 2.96 µM) | 1 µg/mL (≈ 2.96 µM) | 2 µg/mL (≈ 5.93 µM) | 1 µg/mL (≈ 2.96 µM) |  |  |  |  |  |  |  | 
COc1c(N2C[C@@H]3CCCN[C@@H]3C2)c(F)cc2c(=O)c(C(=O)O)cn(C3CC3)c12 [MOXIFLOXACIN] | > 0.25 µg/mL | 0.03 µg/mL (≈ 0.0747 µM) | > 0.5 µg/mL |  | > 0.25 µg/mL | 0.03 µg/mL (≈ 0.0747 µM) | ≤ 0.03 µg/mL |  |  | ≤ 0.016 µg/mL | ≤ 0.03 µg/mL |  | 0.03 µg/mL (≈ 0.0747 µM) | 
CO[C@H]1/C=C/O[C@@]2(C)Oc3c(C)c(O)c4c(O)c(c(/C=N/N5CCN(C)CC5)c(O)c4c3C2=O)NC(=O)/C(C)=C\C=C\[C@H](C)[C@H](O)[C@@H](C)[C@@H](O)[C@@H](C)[C@H](OC(C)=O)[C@@H]1C [RIFAMPIN] | 0.03 µg/mL (≈ 0.0365 µM) | ≤ 0.016 µg/mL | 0.13 µg/mL (≈ 0.158 µM) | 0.5 µg/mL (≈ 0.608 µM) | 0.06 µg/mL (≈ 0.0729 µM) | 0.03 µg/mL (≈ 0.0365 µM) | ≤ 0.03 µg/mL |  |  | 0.5 µg/mL (≈ 0.608 µM) | ≤ 0.03 µg/mL |  | 0.5 µg/mL (≈ 0.608 µM) | 
CN[C@@H]1[C@H](O[C@H]2[C@H](O[C@H]3[C@H](O)[C@@H](O)[C@H](N=C(N)N)[C@@H](O)[C@@H]3N=C(N)N)O[C@@H](C)[C@]2(O)C=O)O[C@@H](CO)[C@H](O)[C@H]1O [STREPTOMYCIN] | 0.13 µg/mL (≈ 0.224 µM) | 0.25 µg/mL (≈ 0.43 µM) | 0.25 µg/mL (≈ 0.43 µM) | 0.25 µg/mL (≈ 0.43 µM) | 0.13 µg/mL (≈ 0.224 µM) | 0.5 µg/mL (≈ 0.86 µM) | 1 µg/mL (≈ 1.72 µM) |  |  | 0.25 µg/mL (≈ 0.43 µM) | 1 µg/mL (≈ 1.72 µM) |  | 0.25 µg/mL (≈ 0.43 µM) | 
CN(C)[C@@H]1C(O)=C(C(N)=O)C(=O)[C@@]2(O)C(O)=C3C(=O)c4c(O)cccc4[C@@](C)(O)[C@H]3C[C@@H]12 [TETRACYCLINE] |  |  |  |  |  |  | 2.5 µg/mL (≈ 5.63 µM) | Active |  | 10 µg/mL (≈ 22.5 µM) | 2.5 µg/mL (≈ 5.63 µM) |  | 5 µg/mL (≈ 11.3 µM) | Active
